Legend:
HL60 cells = assay: total cellular ATP (CellTiterGlo); type: cell-based, human; settings: HL-60 cells, 5, 20 and 40 μM, 18 h
Description: (§1) To determine the metabolic activity of cells, the total cellular ATP level was measured in cell culture samples using the CellTiterGlo reagent (Promega Inc. Madison, WI). Cells were grown as described above in the presence of the desired concentration of compounds. The spent medium was decanted, and cells were washed three times with PBS and subsequently incubated with 100 μl of the CellTiterGlo substrate. To facilitate the reaction, plates were incubated at room temperature for 2 min with shaking and for an additional 10 min without shaking. Total light production was measured using a Victor 3 multilabel plate reader (PerkinElmer).

J774A.1 cells = assay: total cellular ATP (CellTiterGlo); type: cell-based, mouse; settings: J774A.1 cells, 5, 20 and 40 μM, 18 h
Description: as §1

SMILES	ATP levels (HL60 cells)	ATP levels (J774A.1 cells)
O=C(Nc1ccccc1O)c1cccc(N2C(=O)c3ccc(C(=O)Nc4ccccc4O)cc3C2=O)c1 [N17, N-(2-hydroxyphenyl)-2-{3-[(2-hydroxyphenyl)carbamoyl]phenyl}-1,3-dioxo-2,3-dihydro-1H-isoindole-5-carboxamide]	no significant effect	no significant effect
Cc1cc([C@H]2CCCN(CC(=O)NC3(C#N)CCCC3)C2)n[nH]1 [V8, N-(1-cyanocyclopentyl)-2-[3-(5-methyl-1H-pyrazol-3-yl)piperidin-1-yl] acetamide]	no significant effect	no significant effect

Source: article PMC7577153, “Identification of Small-Molecule Inhibitors Targeting Porphyromonas gingivalis Interspecies Adherence and Determination of Their In Vitro and In Vivo Efficacies” (Antimicrobial Agents and Chemotherapy, 2020)
